Publication PMC12187842, “A novel molecule targeting neutrophil-mediated B-1a cell trogocytosis attenuates sepsis-induced acute lung injury” (Frontiers in Immunology, 2025)

Tests used:
Assay type in all cases: in vivo, mouse
[1] = system: CLP-induced sepsis in C57BL/6 mice; assay: Survival study in CLP mice; conditions: C11 10 mg/kg i.p. once after CLP (Figure 5 legend: 10 μg/kg), single s.c. imipenem 0.5 mg/kg; n = 21/group; CLP vehicle 28.6%; p < 0.05 vs. CLP vehicle, log-rank
From the text: (§1) Mice were anesthetized with 2% isoflurane in oxygen, and sepsis was induced via cecal ligation and puncture (CLP) ([26]). A 1-cm midline abdominal incision was made to expose the cecum, which was ligated 1-cm proximal to its end using a 4-0 silk suture. The cecum then was perforated with a single through-and-through puncture using a 22-gauge needle, positioned midway between the ligation and the tip of the cecum. A small amount of fecal material was gently extruded from the perforation sites to confirm the patency of the punctures, and the cecum was subsequently returned to the peritoneal cavity. Following abdominal closure, resuscitation was provided via subcutaneous (s.c.) injection of 500 µL normal saline. Postoperative analgesia was administered with a single dose of 0.1 mg/kg buprenorphine. […]
All statistical analyses were performed using Prism 10 (GraphPad Software, San Diego, CA). Data are expressed as the mean ± standard error of the mean (SEM), and p-values < 0.05 were considered statistically significant. […] For survival analysis, data were assessed using the Kaplan-Meier estimator and compared using the log-rank test.

[2] = system: CLP-induced sepsis in C57BL/6 mice; assay: Lung wet-to-dry weight ratio in CLP mice; conditions: C11 10 mg/kg i.p. once after CLP (Figure 5 legend: 10 μg/kg); 20 h; n = 5-7/group; vs. CLP vehicle
From the text: as §1, with “buprenorphine. To evaluate the effects of the therapeutic peptide (named Compound 11 or C11) (synthesized by GenScript USA Inc., Piscataway, NJ) on sepsis, C57BL/6 mice were assigned to three experimental groups: the Sham group, the CLP group treated with vehicle, and the CLP group treated with C11 (10 mg/kg). C11 was dissolved in DMSO (10 mg/mL) and diluted with saline to a total volume of 500 µL.” for “buprenorphine.”
Lung wet and dry weights were measured as previously described ([30]). […] The wet-to-dry weight ratio was calculated as an indicator of pulmonary edema.

[3] = system: CLP-induced sepsis in C57BL/6 mice; assay: TUNEL assay of lung tissue in CLP mice; conditions: C11 10 mg/kg i.p. once after CLP (Figure 5 legend: 10 μg/kg); 20 h; n = 5-7/group; vs. CLP vehicle
From the text: as §1
To determine cellular apoptosis we used a TUNEL assay kit (Roche Diagnostics, Indianapolis, IN) using 5-μm lung sections by following the manufacturer’s instructions. […] The TUNEL-positive cells were assessed by LSM900 confocal microscope (Zeiss) microscopes. The number of apoptotic cells/fields was quantified using ImageJ, Fiji software (version 1.53k).

[4] = system: CLP-induced sepsis in C57BL/6 mice; assay: Lung tissue mRNA expression in CLP mice by real-time qPCR; conditions: C11 10 mg/kg i.p. once after CLP (Figure 5 legend: 10 μg/kg); 20 h; normalized to β-actin; n = 5-7/group; vs. CLP vehicle
From the text: (§2) Mice were anesthetized with 2% isoflurane in oxygen, and sepsis was induced via cecal ligation and puncture (CLP) ([26]). A 1-cm midline abdominal incision was made to expose the cecum, which was ligated 1-cm proximal to its end using a 4-0 silk suture. The cecum then was perforated with a single through-and-through puncture using a 22-gauge needle, positioned midway between the ligation and the tip of the cecum. A small amount of fecal material was gently extruded from the perforation sites to confirm the patency of the punctures, and the cecum was subsequently returned to the peritoneal cavity. Following abdominal closure, resuscitation was provided via subcutaneous (s.c.) injection of 500 µL normal saline. Postoperative analgesia was administered with a single dose of 0.1 mg/kg buprenorphine. To evaluate the effects of the therapeutic peptide (named Compound 11 or C11) (synthesized by GenScript USA Inc., Piscataway, NJ) on sepsis, C57BL/6 mice were assigned to three experimental groups: the Sham group, the CLP group treated with vehicle, and the CLP group treated with C11 (10 mg/kg). C11 was dissolved in DMSO (10 mg/mL) and diluted with saline to a total volume of 500 µL. The peptide was administered once, immediately after surgery, via intraperitoneal (i.p.) injection. Mice in the vehicle group received an equivalent volume of DMSO and normal saline via i.p. injection. After 20 h, lungs were harvested, and blood was collected via cardiac puncture. For the survival study, animals received a single subcutaneous (s.c.) injection of 0.5 mg/kg imipenem at the end of the CLP.
Total RNA was extracted from lungs using a TRIzol reagent (Thermo Fisher Scientific) according to the manufacturer’s instructions. cDNA was synthesized using M-MLV reverse transcriptase (Thermo Fisher Scientific). Quantitative real-time PCR (qPCR) was performed using SYBR Green PCR Master Mix (Thermo Fisher Scientific) with a StepOnePlus Real-Time PCR thermocycler (Thermo Fisher Scientific). Mouse β-actin served as an endogenous control to normalize mRNA levels using the comparative Ct method. […]

[5] = system: CLP-induced sepsis in C57BL/6 mice; assay: Plasma organ injury markers in CLP mice by colorimetric enzymatic assays; conditions: C11 10 mg/kg i.p. once after CLP (Figure 5 legend: 10 μg/kg); 20 h; n = 5-7/group; vs. CLP vehicle
From the text: as §2
Blood was collected by heart puncture. Plasma levels of organ injury markers (ALT: alanine transaminase, AST: aspartate transferase, and LDH: lactate dehydrogenase) were assessed by using colorimetric enzymatic assays (MedTest Dx, Canton, MI) according to the manufacturer’s protocol. Plasma levels of pro-inflammatory cytokines (TNFα: tumor necrosis factor α, and IL-6: interleukin-6) were measured by using mouse-specific ELISA kits (BD Biosciences).

[6] = system: CLP-induced sepsis in C57BL/6 mice; assay: Lung histopathology (H&E) in CLP mice; conditions: C11 10 mg/kg i.p. once after CLP (Figure 5 legend: 10 μg/kg); 20 h; n = 5-7/group; vs. CLP vehicle
From the text: as §2, with “The peptide was administered once, immediately after surgery, via intraperitoneal (i.p.) injection. Mice in the vehicle group received an equivalent volume of DMSO and normal saline via i.p. injection. After 20 h, lungs were harvested, and blood was collected via cardiac puncture. For the survival study, animals received a single subcutaneous (s.c.) injection of 0.5 mg/kg imipenem at the end of the CLP.” left out
Lung tissues were fixed in 10% formalin, embedded in paraffin, sectioned into 5-μm-thick slices, and stained with hematoxylin and eosin (H&E). […] Lung fields at ×400 magnification were scored and averaged for analyses.

126-ELKNRTVSWFS-136 [Compound C11]
survival [1]: 57.1% | sepsis-induced pulmonary edema (lung wet-to-dry ratio) [2]: effectively reduced | lung apoptosis (TUNEL+ cells) [3]: reduced tissue damage and apoptosis | lung tissue CXCL1 (KC) mRNA [4]: significantly reduced | lung tissue CXCL2 (MIP-2) mRNA [4]: significantly reduced | lung tissue IL-6 mRNA [4]: significantly reduced | blood ALT [5]: markedly reduced | blood AST [5]: markedly reduced | blood LDH [5]: markedly reduced | sepsis-induced lung injury (H&E histology, lung injury score 0 to 1) [6]: significantly mitigated
